In patent US11459375B2, “Cyclic peptides for the treatment of Graves' disease” (advanceCOR GmbH, priority 2017, dated 2022):
Peptide text beside a SMILES is read from it.

What was measured:
Ad-TSHR-immunized mice [1] = experiment: ECG heart rates in Graves' disease mouse model; assay type: in vivo, BALB/c mice; settings: 1 mg/kg IV 4-weekly, ECG under anaesthesia
Procedure: (§1) In FIG. 7 the effect of the peptide therapy on heart rates at various times during the experiment (A), and on heart weights (B) and cardiac ventricular volumes (C) at the end of the experiment were evaluated in all animals. The measurements were carried out in Ad-TSHR-immunized mice treated by either 4-weekly injections with vehicle (0.9% NaCl, “Graves' no therapy”, n=25 mice), or administrations of 1 mg/kg body weight of peptide of the invention 836 (12 mice), or of peptide 829 (13 mice), or TSHR-Fc (18 mice). In addition, age-matched immunologically naïve unimmunized mice (“healthy”, 19 animals) were investigated. Data are represented as mean±SEM. Significance over time was tested by analysis of variance (ANOVA) of groups at given time points, and controlled by ANOVA for repeated measurements within one group, followed by LSD post-hoc testing. *p<0.05, and **p<0.005, compared to the TSHR-immunized group treated with only NaCl (“Graves' no therapy”).
When mice were subjected to anaesthesia for immunisation, their heart function was monitored with an electrocardiogram (ECG amplifier module, Harvard Apparatus, Hugo Sachs electronics) and recorded with a special software, which allows to determine the heart rate from the ECG reading (Haemodyn, Hugo Sachs electronics). ECG was also performed in anaesthesia before animals were euthanized for histological exam at the end of the study.

[2] = assay type: physicochemical
Source text: Peptide 836 is a 24-meric cyclic peptide corresponding to the eighth TSHR LRD loop, and peptide 829 (also 24-meric) to the first loop of the TSHR LRD.

Ad-TSHR-immunized mice [3] = experiment: serum thyroxin (T4) levels in Graves' disease mouse model; assay type: in vivo, BALB/c mice; settings: 1 mg/kg IV 4-weekly, after start of therapy (week 11)
Procedure: In FIG. 5 the effects of peptide therapy on serum thyroxin levels were evaluated. The measurements were carried out in Ad-TSHR-immunized mice treated by either 4-weekly injections with vehicle (0.9% NaCl, “Graves' no therapy”, n=25 mice), or administrations of 1 mg/kg body weight of peptide of the invention 836 (12 mice), or of peptide 829 (13 mice), or TSHR-Fc (18 mice), or of control peptide 835 (13 mice). In addition, age-matched immunologically naïve unimmunized mice (“healthy”, 19 animals) were investigated. Data are represented as means±SEM. Significance over time was tested by analysis of variance (ANOVA) of groups at given time points, and controlled by ANOVA for repeated measurements within one group, followed by LSD post-hoc testing. *p<0.05, and **p<0.005, compared to the TSHR-immunized group treated with only NaCl (“Graves' no therapy”).
(§2) The study protocol used three 3-weekly immunizations (“initiation”) and followed by a “maintenance” phase with further regular 4-weekly boosts until the 9th immunisation, as described before (22). Mice were randomly assigned to therapeutic groups. Therapy (either 1 mg/kg body weight peptides or 0.9% NaCl vehicle control) was given 1 week after the 4th immunization by IV injection into a tail vein, and then continued at 4-weekly intervals, as described before for the treatment of anti-β1AR (16). The fusion protein TSHR-Fc was given IV at identical times at doses of 1 mg/kg, but had to be applied together with the histamine receptor blocker clemastin (Tavegil®) at a dose of 0.02 mg per mouse (25 g body weight) to avoid clinical symptoms of allergic reaction, which had been observed in initial pilot studies of TSHR-Fc administration in mice.
Total thyroxine (T4) was measured by immunoassay kit (#T4044T-100, Calbiotech Inc, Austin, Calif.) in duplicate determination.

Ad-TSHR-immunized mice [4] = experiment: heart weights upon necropsy; assay type: in vivo, BALB/c mice; settings: 1 mg/kg IV 4-weekly, necropsy at end of experiment
Procedure: as §1
Due to unavailability of some fine histological sections, analysis of this parameter in mice treated with other peptides could unfortunately not be completed.

Ad-TSHR-immunized mice [5] = experiment: thyroid size at end of experiment in Graves' disease mouse model; assay type: in vivo, BALB/c mice; settings: 1 mg/kg IV 4-weekly
Procedure: Representative images are shown. In FIG. 4B, the effects of peptide therapy on thyroid sizes were investigated at the end of the experiment. The measurements were carried out in Ad-TSHR-immunized mice treated by either 4-weekly injections with vehicle (0.9% NaCl, “Graves' no therapy”, n=25 mice), or administrations of 1 mg/kg body weight of peptide of the invention 836 (12 mice), or of peptide 829 (13 mice), or of TSHR-Fc (18 mice), or of control peptide 835 (13 mice). In addition, age-matched immunologically naïve unimmunized mice (“healthy”, 19 animals) were investigated. The mean thyroid sizes in mm^3 are shown with SEM. Differences between groups were tested by AVOVA followed by post hoc LSD testing. ** indicates statistical significance (p<0.001) compared to the TSHR-immunized group treated with only NaCl (“Graves' no therapy”).
as §2
After euthanasia, dissection of the thyroid glands was performed under a stereomicroscope, as described before (22). Briefly, cross cuts at the level above the larynx and below the seventh cartilage ring were made and the glands with the tracheae and oesophagi were removed from the necks. Tissue blocks were kept in 4% neutral para-formaldehyde (PFA), washed in PBS 3 times and embedded in optimum cutting temperature (OCT) formulation (Tissue-Tek® O.C.T.™ compound, VWR Chemicals, Leuven, Belgium). Consecutive 5 μm-thick cross sections were cut at a fixed distance of 500 μm using a Leica microtome CM 1850 Cryostat (temperature at −19° C.) and mounted on Thermo Polysine slides (Thermo Scientific, Cat J2800AMNZ). […] Thyroid volumes (mm^3) were calculated from the sum of the areas of each section over the whole cutting region. Myocardial volumes (mm^3) were calculated in a similar way as described for thyroid glands from the sum of the areas of each section over whole cutting region (5 to 6 slides, depending on respective size of the hearts). […]

Row | Compound | heart rate (Ad-TSHR-immunized mice [1]) | solubility in water [2] | serum thyroxin (T4) levels (Ad-TSHR-immunized mice [3]) | heart weights (Ad-TSHR-immunized mice [4]) | thyroid size (Ad-TSHR-immunized mice [5])
1 | CC[C@H](C)[C@@H]1NC(=O)[C@H](C(C)C)NC(=O)[C@H]([C@@H](C)O)NC(=O)[C@H](CC(C)C)NC(=O)[C@H](Cc2ccc(O)cc2)NC(=O)[C@H](CCCCN)NC(=O)[C@H](CC(N)=O)NC(=O)[C@H](CCCCN)NC(=O)[C@H](CC(N)=O)NC(=O)[C@H](CC(C)C)NC(=O)[C@H](Cc2ccc(O)cc2)NC(=O)[C@H](C(C)C)NC(=O)[C@H](C)NC(=O)[C@H](CC(=O)O)NC(=O)[C@H](CC(C)C)NC(=O)[C@H](CCCCN)NC(=O)[C@H]([C@@H](C)O)NC(=O)CNC(=O)[C@H](CC(N)=O)NC(=O)[C@H](Cc2ccccc2)NC(=O)[C@H](C)NC(=O)[C@H](Cc2ccc(O)cc2)NC(=O)CNC(=O)[C@H](CC(=O)O)NC1=O [peptide 836] (cyclo(GYAFNGTKLDAVYLNKNKYLTVID)) | no further increase, and significantly decreased resting heart rates at later time points | easily soluble in water | progressively decreasing T4 levels, which consecutively reverted to normal values | significantly reduced heart weights | decreased thyroid sizes
2 | SPPCECHQEEDFRVTCKDIQRIPS [peptide 829] | a trend which did not reach statistical significance | easily soluble in water | a trend which did not reach statistical significance | trends towards reduced heart weights which did not reach statistical significance | a trend which did not reach statistical significance
3 | TSHR-Fc: fusion protein: first 289 amino acids of human TSH receptor (A-subunit), GGR linker and Fc portion of human IgG2 | no further increase, and significantly decreased resting heart rates at later time points |  | progressively decreasing T4 levels, which consecutively reverted to normal values | trends towards reduced heart weights which did not reach statistical significance | decreased thyroid sizes
